In patent US20200170291A1, “PROCESSES FOR PRODUCING LACTITOL GRANULATES AND GRANULATES PRODUCED THEREBY” (PARTICLE DYNAMICS INTERNATIONAL, LLC, priority 2017, published 2020):
Several values for one entry are separate records, joined by “and”; a condition that tells them apart may be missing. Identical values can stand only once. Like-named read-outs stand apart in the source and are kept apart here.

Columns and labels:
Assay type in all cases: physicochemical
[1] = MALVERN MASTERSIZER 2000 particle size (d10, d50, d90)
Method: (§1) All particle size (PS) analyses were conducted using a ROTAP Particle Size Analyzer and a MALVERN MASTERSIZER 2000, except as otherwise indicated. All particle size data were measured in microns and analyzed via the MALVERN MASTERSIZER 2000.

Tapped density = assay: Tapped density
Method: (§2) Tapped density of the granulates of the present invention is typically at least about 0.6 g/mL, at least about 0.75 g/mL, at least about 0.80 g/mL, at least about 0.85 g/mL, or at least about 0.90 g/mL. Overall, the tapped density of the granulates of the present invention generally ranges from about 0.6 g/mL to about 1.0 g/mL, from about 0.7 g/mL to about 0.95 g/mL, or from about 0.8 g/mL to about 0.9 g/mL (e.g., about 0.85 g/mL). Bulk and tapped density as reported herein are determined by USP <616>, but it should be understood that other methods known in the art may be also be utilized to determine the tapped densities of compositions of the present invention.
(§3) Tare a 250 mL graduated glass cylinder. Fill with 100 grams of sample. Reweigh to determine weight. Record Initial Volume. The bulk density is the weight in grams divided by the volume (mL). Tap 1000 times by the automated tapping device. Read final volume. The tapped density is the weight in grams divided by the tapped volume (mL).

Bulk density = assay: Bulk density
Method: as §2, §3

[2] = ROTAP sieve particle size distribution (% retained)
Method: as §1
Particle Size: During the granulation process, an approximately 300 g sample is taken from material of the finished product drum starting with the first drum and every sixth drum thereafter, including the last drum (i.e. drum #1, 7, 13, 19 etc.). […] Each fraction was weighed and percent retained was calculated.

[3] = HANSON FLODEX powder flowability (viscosity)
Excerpt: Samples were also subjected to flowability testing using a HANSON FLODEX Powder Flowability tester. The basis for the method is the powders ability to fall freely through a hole in a plate. The diameter of the smallest hole through which the powder passes is considered the flowability index. The flowability index (radius of hole size in cm) along with the bulk density of the material tested are then used to determine the viscosity (internal friction coefficient) of the powder. Lower powder viscosity indicates better flowability.
Samples of the finished lactitol granulations produced during execution of the commercial optimization protocol were also evaluated for flow using the HANSON Intrinsic Flowability Test. During the test, the smallest hole (in millimeters) that the product will flow through is determined in the FLODEX apparatus. Using this information and the bulk density of each powder (as determined in a 250 mL graduated cylinder) the coefficient of friction or viscosity (K) was calculated. The viscosity K (in poises) is equal to 490 (½ the acceleration of gravity) times the radius of the hole in centimeters times the bulk density of the sample. The result K is then multiplied by 100 to express the viscosity in centipoises.

[4] = Moisture content by Karl Fischer (KF)
Method: As noted, lactitol exists in the monohydrate, dihydrate, trihydrate, and hexahydrate forms. Lactitol monohydrate is the preferred form of lactitol for use. Lactitol monohydrate is defined by the EU-NP and USP-NF as having moisture content of between 4.5 wt % and 5.5 wt %. As used herein, the term “moisture content” refers to the total moisture content of a composition, including both free and bound water. Moisture contents reported here are determined by the Karl-Fischer (KF) method, but may also be determined by other suitable methods known in the art.
During the weighing of the ingredients for the binder solution and during the set up for granulation, an approximately 100 g sample representing each raw material is taken and placed into an appropriately labeled container. An approximately 0.3 gram sample is dispersed in methanol and test using a Karl Fischer moisture analyzer with HYDRANAL Composite 5 titrant using a 60 sec extraction time. Percent moisture was reported.
For each Qualification lot, at the beginning and middle of each shift samples were pulled using a sample thief from three locations within the tub after granulation but before drying. These samples were tested for moisture as described above.
Moisture content was also tested using the same procedure after the second drying step.

[5] = jet mill Grinding Pressure 25 PSI, Feed Injection Pressure 20 PSI
[6] = jet mill Grinding Pressure 25 PSI, Feed Injection Pressure 40 PSI
[7] = jet mill Grinding Pressure 25 PSI, Feed Injection Pressure 60 PSI
[8] = jet mill Grinding Pressure 30 PSI, Feed Injection Pressure 20 PSI
[9] = jet mill Grinding Pressure 30 PSI, Feed Injection Pressure 40 PSI
[10] = jet mill Grinding Pressure 30 PSI, Feed Injection Pressure 60 PSI
[11] = jet mill Grinding Pressure 35 PSI, Feed Injection Pressure 20 PSI
[12] = jet mill Grinding Pressure 35 PSI, Feed Injection Pressure 40 PSI
[13] = jet mill Grinding Pressure 35 PSI, Feed Injection Pressure 60 PSI

In the case of `OC[C@@H](O)[C@@H](O[C@@H]1O[C@H](CO)[C@H](O)[C@H](O)[C@H]1O)[C@H](O)[C@@H](O)CO` [Drum No. 33], the “PS d10” value ([1]; listed as 33) is reported as 4.1 μ, the “PS d50” value ([1]; listed as 33) is reported as 36.6 μ and the “PS d90” value ([1]; listed as 33) is reported as 267.6 μ. The “Particle Size Span” value ([1]; listed as 33) was 7.2.

In the case of `OC[C@@H](O)[C@@H](O[C@@H]1O[C@H](CO)[C@H](O)[C@H](O)[C@H]1O)[C@H](O)[C@@H](O)CO` [Drum No. 37], the “PS d10” value ([1]; listed as 37) is reported as 4.4 μ, the “PS d50” value ([1]; listed as 37) is reported as 43.9 μ and the “PS d90” value ([1]; listed as 37) is reported as 337.2 μ. The “Particle Size Span” value ([1]; listed as 37) was 7.6.

With `OC[C@@H](O)[C@@H](O[C@@H]1O[C@H](CO)[C@H](O)[C@H](O)[C@H]1O)[C@H](O)[C@@H](O)CO` [Drum No. Last] the “PS d10” value ([1]; listed as Last) was 4.2 μ, the “PS d50” value ([1]; listed as Last) was 39.1 μ and the “PS d90” value ([1]; listed as Last) was 341.6 μ. For the same compound, the “Particle Size Span” value ([1]; listed as Last) was 8.6.

For `OC[C@@H](O)[C@@H](O[C@@H]1O[C@H](CO)[C@H](O)[C@H](O)[C@H]1O)[C@H](O)[C@@H](O)CO` [Jet Milled B], the “PS d10” value [1] was 5.3 μ, the “PS d50” value [1] was 60.0 μ and the “PS d90” value [1] was 316.2 μ. For the same compound, the “d50 (mean particle size by volume distribution)” value [1] was 60 microns, the “Tapped Density” value (Tapped density) was 0.933 g/mL and the “Bulk Density” value (Bulk density) was 0.670 g/mL. For the same compound, the “Particle Size Distribution (% Retained) 12” value ([2]; 12 mesh screen) was 0.0%, the “Particle Size Distribution (% Retained) 20” value ([2]; 20 mesh screen) was 0.0% and the “Particle Size Distribution (% Retained) 40” value ([2]; 40 mesh screen) was 1.9%. The “Particle Size Distribution (% Retained) 60” value ([2]; 60 mesh screen) was 14.4%, the “Particle Size Distribution (% Retained) 80” value ([2]; 80 mesh screen) was 17.2% and the “Particle Size Distribution (% Retained) 100” value ([2]; 100 mesh screen) was 10.7%. For the same compound, the “Particle Size Distribution (% Retained) 200” value ([2]; 200 mesh screen) was 36.3% and the “Particle Size Distribution (% Retained) Pan” value ([2]; receiving pan) was 19.5%.

In the case of `OC[C@@H](O)[C@@H](O[C@@H]1O[C@H](CO)[C@H](O)[C@H](O)[C@H]1O)[C@H](O)[C@@H](O)CO` [Proof of Concept], the “PS d10” value [1] is reported as 5.3 μ, the “PS d50” value [1] is reported as 60.0 μ and the “PS d90” value [1] is reported as 316.2 μ. The “Particle Size Span” value [1] was 5.2.

With `OC[C@@H](O)[C@@H](O[C@@H]1O[C@H](CO)[C@H](O)[C@H](O)[C@H]1O)[C@H](O)[C@@H](O)CO` [Sample 1b] the “PS d10” value [1] was 5.6 μ, the “PS d50” value [1] was 56.7 μ and the “PS d90” value [1] was 420.9 μ. The “Particle Size Span” value [1] was 7.3.

In the case of `OC[C@@H](O)[C@@H](O[C@@H]1O[C@H](CO)[C@H](O)[C@H](O)[C@H]1O)[C@H](O)[C@@H](O)CO` [Sample 2b], the “PS d10” value [1] is reported as 5.5 μ, the “PS d50” value [1] is reported as 56.5 μ and the “PS d90” value [1] is reported as 401.2 μ. For the same compound, the “Particle Size Span” value [1] was 7.0.

For `OC[C@@H](O)[C@@H](O[C@@H]1O[C@H](CO)[C@H](O)[C@H](O)[C@H]1O)[C@H](O)[C@@H](O)CO` [Sample 3b], the “PS d10” value [1] was 7.6 μ, the “PS d50” value [1] was 113.1 μ and the “PS d90” value [1] was 656.4 μ. The “Particle Size Span” value [1] was 5.7.

In the case of `OC[C@@H](O)[C@@H](O[C@@H]1O[C@H](CO)[C@H](O)[C@H](O)[C@H]1O)[C@H](O)[C@@H](O)CO` [jet milled lactitol], the “Particle Size Span” value [1, 5] is reported as 4.2, the “Particle Size d10” value [1, 5] is reported as 10.8 μ and the “Particle Size d50” value [1, 5] is reported as 150.7 μ. For the same compound, the “Particle Size d90” value [1, 5] was 646.1 μ, the “Particle Size Span” value [1, 6] was 4.6 and the “Particle Size d10” value [1, 6] was 8.5 μ. The “Particle Size d50” value [1, 6] was 122.9 μ, the “Particle Size d90” value [1, 6] was 585.1 μ and the “Particle Size Span” value [1, 7] was 7.2. For the same compound, the “Particle Size d10” value [1, 7] was 5.5 μ, the “Particle Size d50” value [1, 7] was 84.3 μ and the “Particle Size d90” value [1, 7] was 619.5 μ. For the same compound, the “Particle Size Span” value [1, 8] was 12.7, the “Particle Size d10” value [1, 8] was 4.5 μ and the “Particle Size d50” value [1, 8] was 47.8 μ. The “Particle Size d90” value [1, 8] was 615.2 μ, the “Particle Size Span” value [1, 9] was 13.7 and the “Particle Size d10” value [1, 9] was 4.5 μ. The “Particle Size d50” value [1, 9] was 46.3 μ, the “Particle Size d90” value [1, 9] was 640.1 μ and the “Particle Size Span” value [1, 10] was 11.1. For the same compound, the “Particle Size d10” value [1, 10] was 4.5 μ, the “Particle Size d50” value [1, 10] was 45.6 μ and the “Particle Size d90” value [1, 10] was 513.0 μ. The “Particle Size Span” value [1, 11] was 17.5, the “Particle Size d10” value [1, 11] was 4.1 μ and the “Particle Size d50” value [1, 11] was 36.0 μ. The “Particle Size d90” value [1, 11] was 635.0 μ, the “Particle Size Span” value [1, 12] was 6.5 and the “Particle Size d10” value [1, 12] was 5.8 μ. For the same compound, the “Particle Size d50” value [1, 12] was 83.4 μ, the “Particle Size d90” value [1, 12] was 548.6 μ and the “Particle Size Span” value [1, 13] was 5.4. The “Particle Size d10” value [1, 13] was 7.6 μ, the “Particle Size d50” value [1, 13] was 110.9 μ and the “Particle Size d90” value [1, 13] was 611.9 μ. The “viscosity (flowability)” value [3] was 46,905 cps and the “viscosity of jet milled lactitol, times higher than raw lactitol” value [3] was “approximately 4.8 times”.

With `OC[C@@H](O)[C@@H](O[C@@H]1O[C@H](CO)[C@H](O)[C@H](O)[C@H]1O)[C@H](O)[C@@H](O)CO` [milled lactitol] the KF moisture [4] was 5.05% and 4.99%.
